Data: patent US20210023223A1, “HYDROCARBON / LIPID - CAROTENOID COMPLEXES” (IP SCIENCE LIMITED, priority 2018, published 2021)

Assay: Size of Cod Liver oil lipid structures, microscopy
Assay type: physicochemical
Source text: For measurement of lipid droplets and fat globules and quantification of their size binocular microscope Olympus BX41 was used with Cell^B software for morphometric analysis. All parameters were collected from 10 randomly selected microscopic fields at ×1000).
The effect of adding lycopene into another polyunsaturated oil, in this case cod liver oil, was a dose-dependent increase in the size of its lipid structures. For Olive and Sunflower oils this increase in diameter caused by lycopene could reach 20 fold, for Canola and Cod Liver oil it was 50 or 100 fold.

CC(C)=CCC/C(C)=C/C=C/C(C)=C/C=C/C(C)=C/C=C/C=C(C)/C=C/C=C(C)/C=C/C=C(\C)CCC=C(C)C [Lycopene]
Increase in lipid droplet diameter: 100 fold
